Assay results published in patent publication US10752587B2, “Homobispiperidinyl derivatives as liver X receptor beta agonists, compositions and their use” (Merck Sharp & Dohme Corp., priority 2015, dated 2020).
Where two headings read alike, the source gives them in different places.

Legend:
[1] = molecular target: T1, glutathione-S-transferase (GST) tagged LXRbeta LBD (ligand binding domain) (Homo sapiens, UniProt P55055); experiment: LanthaScreen TR-FRET Liver X Receptor Coactivator Assay, co-activator recruitment to LXRbeta LBD; type: biochemical; conditions: for Emax: read-out: LXR beta Activity @ max dose (%); for EC50: potency (Inflection Point, IP), co-activator recruitment to LXRbeta LBD, in relation to T0901317
T1 construct: purchased Invitrogen pv4658.pps
T1 sequence (P55055 222-460 limits assumed): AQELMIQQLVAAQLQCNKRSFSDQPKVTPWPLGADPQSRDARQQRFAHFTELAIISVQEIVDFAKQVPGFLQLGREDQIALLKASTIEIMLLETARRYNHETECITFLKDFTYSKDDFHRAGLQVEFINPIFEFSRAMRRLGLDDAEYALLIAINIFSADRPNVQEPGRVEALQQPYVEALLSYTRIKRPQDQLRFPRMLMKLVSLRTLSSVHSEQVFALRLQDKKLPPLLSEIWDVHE
Procedure, shortened: (§1)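 LXRα- or LXRβ-LBD protein was added to test compounds, then fluorescein-labelled coactivator peptide plus Tb-anti-GST antibody; after room-temperature incubation, TR-FRET was read. Inflection point (IP) and Emax were expressed relative to the dual agonist reference T0901317.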

[2] = molecular target: T2, glutathione-S-transferase (GST) tagged LXRalpha LBD (ligand binding domain) (Homo sapiens, UniProt Q13133); experiment: LanthaScreen TR-FRET Liver X Receptor Coactivator Assay, co-activator recruitment to LXRalpha LBD; type: biochemical; conditions: for Emax: read-out: LXR alpha Activity @ max dose (%); for LXR alpha IP (nM) / EC50: potency (Inflection Point, IP), co-activator recruitment to LXRalpha LBD, in relation to T0901317; for EC50: read-out: LXR alpha IP
T2 construct: purchased Invitrogen pv4655
T2 sequence (Q13133 209-447 limits assumed): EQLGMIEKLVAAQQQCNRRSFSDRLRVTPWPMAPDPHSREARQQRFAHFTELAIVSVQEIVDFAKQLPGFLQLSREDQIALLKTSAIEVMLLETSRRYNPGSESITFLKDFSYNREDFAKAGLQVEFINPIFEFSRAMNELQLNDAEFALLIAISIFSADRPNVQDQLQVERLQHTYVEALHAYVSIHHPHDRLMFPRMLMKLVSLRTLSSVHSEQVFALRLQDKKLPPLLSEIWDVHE
Procedure, shortened: as §1

[3] = efficacy at max dose, in relation to reference dual agonist T0901317

Row | Emax [1, 3] [%] | EC50 ([1]; read-out: LXR beta IP) [nM] | Emax [2, 3] [%] | LXR alpha IP (nM) [2] | EC50 [2] [nM] | LXR beta Activity @ max dose (%) [1, 3] [%] | LXR alpha Activity @ max dose (%) [2, 3] [%] | Compound | EC50 ([1]; LXR beta IP (nM)) [nM] | Emax [1] [%] | Emax [2] [%]
1 | 30 | 27 | 0 | NO IP | – | – | – | COc1cc(Cl)cc([C@@](O)(C(=O)N2CCC(C)(CC3CCN(c4ccc(C(=O)N(C)C)c(Cl)c4)CC3)CC2)C(F)(F)F)c1 [Example 2-48, 2-chloro-4-[4-({1-[(2R)-2-(3-chloro-5-methoxyphenyl)-3,3,3-trifluoro-2-hydroxy-propanoyl]-4-methyl-piperidin-4-yl}methyl)piperidin-1-yl]-N,N-dimethyl-benzamide] | – | – | –
2 | 14 | 238 | 4 | – | 309 | – | – | COc1cc(C)cc([C@@](O)(C(=O)N2CCC(CC3CCN(c4ccc(C(=O)N(C)C)c(Cl)c4)CC3)CC2)C(F)(F)F)c1 [Example 2-107, 2-chloro-N,N-dimethyl-4-[4-({1-[(2R)-3,3,3-trifluoro-2-hydroxy-2-(3-methoxy-5-methylphenyl)propanoyl]piperidin-4-yl}methyl)piperidin-1-yl]benzamide] | – | – | –
3 | 43 | 155 | 5 | NO IP | – | – | – | COc1cccc([C@@](O)(C(=O)N2CCC(CC3CCN(c4cnc(C(=O)N(C)C)c(C)c4)CC3)CC2)C(F)(F)F)c1 [Example 2-2, N,N,3-trimethyl-5-[4-({1-[(2R)-3,3,3-trifluoro-2-hydroxy-2-(3-methoxy-phenyl)propanoyl]piperidin-4-yl}methyl)piperidin-1-yl]pyridine-2-carboxamide] | – | – | –
4 | 79 | 21 | 22 | – | 1510 | – | – | CN(C)C(=O)c1ccc(N2CCC(CC3CN(C(=O)[C@](O)(c4cccc(OC(F)(F)F)c4)C(F)(F)F)C3)CC2)cc1Cl [Example 2-63, 2-chloro-N,N-dimethyl-4-{4-[(1-{(2R)-3,3,3-trifluoro-2-hydroxy-2-[3-(trifluoro-methoxy)phenyl]propanoyl}azetidin-3-yl)methyl]piperidin-1-yl}benzamide] | – | – | –
5 | 122 | 158 | 44 | – | 1130 | – | – | CNC(=O)c1ccc(N2CCC(CC3CCN(C(=O)[C@@](O)(c4ccccc4)C(F)(F)F)CC3)CC2)nc1Cl [Example 7-140, 2-chloro-N-methyl-6-[4-({1-[(2S)-3,3,3-trifluoro-2-hydroxy-2-phenylpropanoyl]piperidin-4-yl}methyl)piperidin-1-yl]pyridine-3-carboxamide] | – | – | –
6 | 30 | 36 | 2 | – | 1780 | – | – | CCc1cccc(C(O)(C(=O)N2CCC(CC3CCN(c4ccc(C(=O)N(C)C)c(Cl)c4)CC3)CC2)C(F)(F)F)c1 (stereo not shown) [Example 2-39, 2-chloro-4-[4-({1-[2-(3-ethylphenyl)-3,3,3-trifluoro-2-hydroxy-propanoyl]piperidin-4-yl}methyl)piperidin-1-yl]-N,N-dimethyl-benzamide] | – | – | –
7 | 40 | 7 | 23 | – | 30 | – | – | CCc1cccc([C@@](O)(C(=O)N2CCC(CC3CCN(c4ccc(C(N)=O)c(Cl)c4)CC3)CC2)C(F)(F)F)c1 [Example 12-6, 2-chloro-4-[4-({1-[(2R)-2-(3-ethylphenyl)-3,3,3-trifluoro-2-hydroxy-propanoyl]piperidin-4-yl}methyl)piperidin-1-yl]benzamide] | – | – | –
8 | 68 | 45 | 21 | – | 817 | – | – | CN(C)C(=O)c1ccc(N2CCC(CC3CCN(C(=O)C(C)(C)c4ccccc4)CC3)CC2)nc1Cl [Example 7-61, 2-chloro-N,N-dimethyl-6-(4-{[1-(2-methyl-2-phenylpropanoyl)piperidin-4-yl]methyl}piperidin-1-yl)pyridine-3-carboxamide] | – | – | –
9 | 47 | 10 | 6 | NO IP | – | – | – | CCOc1cccc([C@@](O)(C(=O)N2CCC(C)(CC3CCN(c4ccc(C(=O)N(C)C)c(Cl)n4)CC3)CC2)C(F)(F)F)c1 [Example 7-50, 2-chloro-6-[4-({1-[(2R)-2-(3-ethoxyphenyl)-3,3,3-trifluoro-2-hydroxypropanoyl]-4-methylpiperidin-4-yl}methyl)piperidin-1-yl]-N,N-dimethylpyridine-3-carboxamide] | – | – | –
10 | – | 19 | – | NO IP | – | 60 | 7 | CNC(=O)c1ccc(N2CCC(CC3CCN(C(=O)[C@](O)(c4cccc(OC)c4)C(F)(F)F)CC3)CC2)cc1Cl [Example 7-127, 2-chloro-N-methyl-4-[4-({1-[(2R)-3,3,3-trifluoro-2-hydroxy-2-(3-methoxyphenyl)propanoyl]piperidin-4-yl}methyl)piperidin-1-yl]benzamide] | – | – | –
11 | 49 | 4 | 7 | NO IP | – | – | – | CN(C)C(=O)c1ccc(N2CCC(CC3(C)CCN(C(=O)[C@](O)(c4cccc(Cl)c4)C(F)(F)F)CC3)CC2)cc1Cl [Example 2-47, 2-chloro-4-[4-({1-[(2R)-2-(3-chloro-phenyl)-3,3,3-trifluoro-2-hydroxy-propanoyl]-4-methyl-piperidin-4-yl}methyl)piperidin-1-yl]-N,N-dimethyl-benzamide] | – | – | –
12 | 111 | 7 | 53 | – | 106 | – | – | CN(C)C(=O)c1ccc(N2CCC(CC3CCN(C(=O)C(O)(c4cc(F)cc(F)c4)C(F)(F)F)CC3)CC2)nc1Cl (stereo not shown) [Example 7-82, 2-chloro-6-[4-({1-[2-(3,5-difluorophenyl)-3,3,3-trifluoro-2-hydroxypropanoyl]piperidin-4-yl}methyl)piperidin-1-yl]-N,N-dimethylpyridine-3-carboxamide] | – | – | –
13 | 105 | 243 | 28 | – | 2020 | – | – | CNC(=O)c1ccc(N2CCC(OC3CCN(C(=O)C(O)(c4cccc(C(F)(F)F)c4)C(F)(F)F)CC3)CC2)cc1Cl (stereo not shown) [Example 7-28, 2-chloro-N-methyl-4-{4-[(1-{3,3,3-trifluoro-2-hydroxy-2-[3-(trifluoromethyl)phenyl]propanoyl}piperidin-4-yl)oxy]piperidin-1-yl} benzamide] | – | – | –
14 | 64 | 36 | 25 | – | 821 | – | – | CN(C)C(=O)c1ccc(N2CCC(CC3CCN(C(=O)C(O)(c4ccsc4)C(F)(F)F)CC3)CC2)cc1Cl (stereo not shown) [Example 2-30, 2-chloro-N,N-dimethyl-4-(4-{[1-(3,3,3-trifluoro-2-hydroxy-2-thiophen-3-ylpropanoyl)piperidin-4-yl]methyl}piperidin-1-yl)benzamide] | – | – | –
15 | 46 | 16 | 6 | NO IP | – | – | – | CN(C)C(=O)c1ccc(N2CCC(CC3CCN(C(=O)[C@](O)(c4cccc(CC#N)c4)C(F)(F)F)CC3)CC2)cc1Cl [Example 2-120, 2-chloro-4-{4-[(1-{(2R)-2-[3-(cyanomethyl)phenyl]-3,3,3-trifluoro-2-hydroxy-propanoyl}piperidin-4-yl)methyl]piperidin-1-yl}-N,N-dimethyl-benzamide] | – | – | –

Row | Compound | Emax [1, 3] [%] | EC50 ([1]; read-out: LXR beta IP) [nM] | Emax [2, 3] [%] | LXR alpha IP (nM) [2] | EC50 [2] [nM] | LXR beta Activity @ max dose (%) [1, 3] [%] | LXR alpha Activity @ max dose (%) [2, 3] [%] | EC50 ([1]; LXR beta IP (nM)) [nM] | Emax [1] [%] | Emax [2] [%]
16 | CN(C)C(=O)c1ccc(N2CCC(CC3CCN(C(=O)[C@](O)(c4ccccc4)C4CC4)CC3)CC2)cc1Cl [Example 2-105, 2-chloro-4-[4-({1-[(2R)-2-cyclopropyl-2-hydroxy-2-phenylacetyl]piperidin-4-yl}methyl)piperidin-1-yl]-N,N-dimethyl-benzamide] | – | – | – | NO IP | – | – | – | 21 | 48 | 12
